ChEMBL document CHEMBL1201862, “PubChem BioAssay data set” (2004)
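Cells were grown in 96-well plates and exposed to each compound for 48 hours at five concentrations; endpoints were interpolated linearly between bracketing concentrations, or set to the highest concentration if not reached. GI50: concentration for 50% inhibition of growth.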 Active and inactive are the calls of the source. Rule as the data show it: active = GI50 up to about 1.1 µM and inactive = higher. Non-standard residues stand in square brackets, D forms with d. Residues, ends and D or L forms follow the SMILES beside them. ξ: configuration not given here. *: point of attachment. NMeF = CN[C@@H](Cc1ccccc1)C(=O)O; ξNMeV = CNC(C(=O)O)C(C)C; Boc = CC(C)(C)OC(=O)*; OBn = c1ccc(CO*)cc1

Key:
Experiment in all cases: NCI tumour cell line growth inhibition, 48 h
[1] = system: LOX IMVI
[2] = system: OVCAR-8
[3] = system: HCT-15
[4] = system: UO-31
[5] = system: SR
[6] = system: HT-29
[7] = system: HCT-116
[8] = system: SK-OV-3
[9] = system: M14
[10] = system: CCRF-CEM
[11] = system: HOP-92
[12] = system: K562
[13] = system: HOP-62
[14] = system: OVCAR-3
[15] = system: A498
[16] = system: SK-MEL-28
[17] = system: MDA-MB-435
[18] = system: Hs-578T
[19] = system: NCI/ADR-RES
[20] = system: MDA-N

Structure (SMILES)	GI50 [1]	GI50 [2]	GI50 [3]	GI50 [4]	GI50 [5]	GI50 [6]	GI50 [7]	GI50 [8]	GI50 [9]	GI50 [10]	GI50 [11]	GI50 [12]	GI50 [13]	GI50 [14]	GI50 [15]	GI50 [16]	GI50 [17]	GI50 [18]	GI50 [19]	GI50 [20]
COC(=O)C(C(=O)C(=O)Nc1ccc([N+](=O)[O-])cc1)c1nc2ccc([N+](=O)[O-])cc2nc1O (stereo not given)	> 100 µM (inactive)	> 100 µM (inactive)	> 100 µM	> 100 µM (inactive)	> 100 µM (inactive)	> 100 µM (inactive)	> 100 µM (inactive)	> 100 µM (inactive)	76.6 µM (inactive)	55.2 µM (inactive)	> 100 µM (inactive)	39.2 µM (inactive)	> 100 µM (inactive)	> 100 µM (inactive)	> 100 µM (inactive)	> 100 µM (inactive)				
CN(CCN1C(=O)c2cccc3cccc(c23)C1=O)CCN1C(=O)c2cccc3cccc(c23)C1=O	58.6 µM (inactive)	5.55 µM (inactive)	0.178 µM	5.81 µM (inactive)	3.37 µM (inactive)	> 100 µM (inactive)	5.98 µM (inactive)	4.29 µM (inactive)	> 100 µM (inactive)	2.18 µM (inactive)		73.1 µM (inactive)	12.5 µM (inactive)	21.2 µM (inactive)		> 100 µM (inactive)	> 100 µM (inactive)	12 µM (inactive)	13.5 µM (inactive)	
Brc1ccc2c(c1)-c1nc3c(cc1CC2)CCc1ccc(Br)cc1-3	> 100 µM (inactive)	> 100 µM (inactive)	> 100 µM	> 100 µM (inactive)			> 100 µM (inactive)	> 100 µM (inactive)	> 100 µM (inactive)	> 100 µM (inactive)	> 100 µM (inactive)	22.6 µM (inactive)	> 100 µM (inactive)	> 100 µM (inactive)	> 100 µM (inactive)	> 100 µM (inactive)	> 100 µM (inactive)		> 100 µM (inactive)	> 100 µM (inactive)
C[N+]1([O-])CCC(O)(C2CC2)CC1 (stereo not given)	> 100 µM (inactive)	> 100 µM (inactive)	> 100 µM	> 100 µM (inactive)	> 100 µM (inactive)	> 100 µM (inactive)	> 100 µM (inactive)	> 100 µM (inactive)	> 100 µM (inactive)	> 100 µM (inactive)		> 100 µM (inactive)	> 100 µM (inactive)	> 100 µM (inactive)		0.0399 µM (active)	> 100 µM (inactive)	> 100 µM (inactive)	> 100 µM (inactive)	
CCOC(=O)/C(=C/c1cccc(OC)c1)N(CC)CC	> 100 µM (inactive)	> 100 µM (inactive)	> 100 µM	> 100 µM (inactive)	> 100 µM (inactive)	> 100 µM (inactive)	> 100 µM (inactive)	> 100 µM (inactive)	> 100 µM (inactive)	> 100 µM (inactive)	> 100 µM (inactive)	> 100 µM (inactive)	> 100 µM (inactive)	> 100 µM (inactive)	> 100 µM (inactive)	> 100 µM (inactive)				
CCC(=O)NC(Nc1cc(C)on1)(C(F)(F)F)C(F)(F)F	> 100 µM (inactive)	> 100 µM (inactive)	> 100 µM	97.9 µM (inactive)	> 100 µM (inactive)	> 100 µM (inactive)	> 100 µM (inactive)	> 100 µM (inactive)	> 100 µM (inactive)	> 100 µM (inactive)	> 100 µM (inactive)	> 100 µM (inactive)	> 100 µM (inactive)	> 100 µM (inactive)	> 100 µM (inactive)	> 100 µM (inactive)	> 100 µM (inactive)	> 100 µM (inactive)	> 100 µM (inactive)	
O=C(O)CCC1(CCC(=O)O)CCCCCCCCC(CCC(=O)O)(CCC(=O)O)C(=O)C1=O	> 100 µM (inactive)	> 100 µM (inactive)	> 100 µM		84.9 µM (inactive)	> 100 µM (inactive)	> 100 µM (inactive)	> 100 µM (inactive)	> 100 µM (inactive)		> 100 µM (inactive)	> 100 µM (inactive)	> 100 µM (inactive)	> 100 µM (inactive)		> 100 µM (inactive)	> 100 µM (inactive)	> 100 µM (inactive)	> 100 µM (inactive)	
CC(=O)OCC1OC(n2c3c(cc(C#N)c2=S)CCCCCC3)C(OC(C)=O)C(OC(C)=O)C1OC(C)=O (stereo not given)	21.5 µM (inactive)	69.8 µM (inactive)	97.5 µM	> 100 µM (inactive)	36.8 µM (inactive)	41.2 µM (inactive)	37.8 µM (inactive)		> 100 µM (inactive)	47.3 µM (inactive)	> 100 µM (inactive)	32.1 µM (inactive)	> 100 µM (inactive)	> 100 µM (inactive)	> 100 µM (inactive)	> 100 µM (inactive)	> 100 µM (inactive)	97.9 µM (inactive)	> 100 µM (inactive)	
O=c1[nH]cc(NCCCl)c(=O)[nH]1	> 100 µM (inactive)	> 100 µM (inactive)	> 100 µM	> 100 µM (inactive)		> 100 µM (inactive)	> 100 µM (inactive)	> 100 µM (inactive)	> 100 µM (inactive)	> 100 µM (inactive)	> 100 µM (inactive)	> 100 µM (inactive)	> 100 µM (inactive)	> 100 µM (inactive)	> 100 µM (inactive)	> 100 µM (inactive)	> 100 µM (inactive)		> 100 µM (inactive)	> 100 µM (inactive)
Cc1cc(C)c(N[S+]([O-])c2cccc([N+](=O)[O-])c2)c(C)c1 (stereo not given)		> 100 µM (inactive)	> 100 µM	> 100 µM (inactive)	> 100 µM (inactive)	> 100 µM (inactive)			> 100 µM (inactive)	> 100 µM (inactive)	> 100 µM (inactive)	> 100 µM (inactive)	> 100 µM (inactive)	> 100 µM (inactive)	> 100 µM (inactive)	> 100 µM (inactive)	> 100 µM (inactive)		> 100 µM (inactive)	
O=C1Nc2cccc(Cl)c2/C1=C\c1cccnc1	0.944 µM (active)	4.33 µM (inactive)	6.62 µM	5.16 µM (inactive)		5.92 µM (inactive)	3.16 µM (inactive)	4.12 µM (inactive)	6.61 µM (inactive)	4.58 µM (inactive)	27.7 µM (inactive)	5.85 µM (inactive)	6.12 µM (inactive)	5.64 µM (inactive)	21 µM (inactive)	16.4 µM (inactive)	5.53 µM (inactive)	14.2 µM (inactive)	4.43 µM (inactive)	
CCCC(N)C(=O)c1ccccc1 (stereo not given)	> 100 µM (inactive)	> 100 µM (inactive)	> 100 µM	> 100 µM (inactive)	> 100 µM (inactive)	> 100 µM (inactive)	> 100 µM (inactive)	> 100 µM (inactive)	> 100 µM (inactive)	> 100 µM (inactive)	> 100 µM (inactive)	> 100 µM (inactive)	> 100 µM (inactive)	> 100 µM (inactive)	> 100 µM (inactive)	> 100 µM (inactive)				
O=c1c2cc(I)ccc2nc(-c2cccs2)n1-c1ccc(O)cc1	11.6 µM (inactive)	15.5 µM (inactive)	12.4 µM	10.4 µM (inactive)	17.4 µM (inactive)	13 µM (inactive)	14.3 µM (inactive)		15.8 µM (inactive)		10.1 µM (inactive)	24.2 µM (inactive)	17.5 µM (inactive)	9.51 µM (inactive)		16 µM (inactive)	12 µM (inactive)		17.8 µM (inactive)	14.6 µM (inactive)
CC(=O)NC(CCCOC(C)=O)C(=O)NC(CCCOC(C)=O)C(=O)NC(CCCOC(C)=O)C(=O)NC(Cc1ccc([N+](=O)[O-])cc1)C(=O)NCC(=O)OCc1ccccc1 (stereo not given)	> 100 µM (inactive)	> 100 µM (inactive)	> 100 µM	> 100 µM (inactive)	74 µM (inactive)	> 100 µM (inactive)	> 100 µM (inactive)	> 100 µM (inactive)	> 100 µM (inactive)	> 100 µM (inactive)	> 100 µM (inactive)	> 100 µM (inactive)	> 100 µM (inactive)	> 100 µM (inactive)	> 100 µM (inactive)	> 100 µM (inactive)	> 100 µM (inactive)	> 100 µM (inactive)	> 100 µM (inactive)	
COCOCC[C@@H]1CC=CC(NC(=O)OCc2ccccc2)C1/C=C/C(=O)CCC1OCCO1 (stereo not given in full)	18.5 µM (inactive)	19.1 µM (inactive)	16.4 µM	46.6 µM (inactive)	3.79 µM (inactive)	38.9 µM (inactive)	17.7 µM (inactive)	54.5 µM (inactive)	29.5 µM (inactive)	17.3 µM (inactive)	> 54.8 µM (inactive)	32.1 µM (inactive)	> 79.8 µM (inactive)	27.2 µM (inactive)	71.1 µM (inactive)	42.1 µM (inactive)				
CC(C)C(C(=O)N1CCC[C@@H]1C(=O)OCc1ccccc1)N(C)C(=O)C(C(C)C)N(C)C(=O)[C@H](Cc1ccccc1)N(C)C(=O)[C@H](NC(=O)OC(C)(C)C)C(C)C (stereo not given in full) (Boc-[dV][NMeF][ξNMeV][ξNMeV][dP]-OBn)	> 60.3 µM (inactive)	> 100 µM (inactive)	> 30.9 µM	> 29.2 µM (inactive)	> 29.8 µM (inactive)	> 45.4 µM (inactive)	14.5 µM (inactive)	> 100 µM (inactive)	> 100 µM (inactive)	> 54.5 µM (inactive)	68.4 µM (inactive)	13.7 µM (inactive)	> 100 µM (inactive)	> 56.6 µM (inactive)	> 100 µM (inactive)	> 100 µM (inactive)				
